Test results: paper PMC12040169 (PLOS Biology, 2025)

assay: in vitro; settings: human, hela cells, % viability

SMILES | viability at 28.5 h, 10 µM [%]
Cc1nc(SCc2ccccc2)nc(O)c1CC(=O)O [CBK264203] | 96.8
CCCCc1cc(=O)oc2cc(OCC(=O)O)ccc12 [CBK264205] | 99.4
COc1cccc(OCC(=O)Nc2ccc(Cl)cc2C(=O)O)c1 [CBK264208] | 105
O=C(O)C1CC=CCC1C(=O)NCc1ccc2c(c1)OCO2 (centres unmarked) [CBK264209] | 96.4
N=c1c2c3c(sc2ncn1CCCn1ccnc1)CCCC3 [CBK264211] | 95.5
O=C(CSc1nnc(-c2cccc(Br)c2)o1)Nc1cccc([N+](=O)[O-])c1 [CBK264212] | 101
O=C(O)CCSc1nc2ccccc2n1-c1ccccc1 [CBK264215] | 100
COc1ccc(C)cc1NC(=O)CCN1CCN(C)CC1 [CBK264216] | 102
O=C(CSc1ccc(Cl)cc1)Nc1cc(Cl)ccc1C(=O)O [CBK264217] | 115
COc1ccccc1N1CCN(CCC(=O)Nc2ccc(Br)c(C)c2)CC1 [CBK264218] | 93.6
COc1cc(CN2CCN(Cc3ccccc3F)CC2)cc(OC)c1O [CBK264219] | 95.9
CCOC(=O)N1CCN(CCC(=O)Nc2ccc3c(c2)CCC3)CC1 [CBK264220] | 111
Cc1cccc(OCC(=O)N2CCN(S(=O)(=O)c3ccc([N+](=O)[O-])cc3)CC2)c1 [CBK264221] | 89.9
O=C(/C=C/c1c[nH]c2ccccc12)c1ccc(C(=O)/C=C/c2c[nH]c3ccccc23)cc1 [CBK264224] | 106
CC(C)OC(=O)COc1ccc2c(=O)c(Oc3ccccc3Br)coc2c1 [CBK264226] | 94
O=C(c1cccnc1)N1CCN(S(=O)(=O)c2ccccc2[N+](=O)[O-])CC1 [CBK264227] | 97
O=C(O)CCSc1nc(-c2ccccc2)c(-c2ccccc2)[nH]1 [CBK264228] | 109
O=[N+]([O-])c1ccccc1S(=O)(=O)N1CCN(S(=O)(=O)Cc2ccccc2)CC1 [CBK264230] | 96.9
Cc1ccc(C)c(NC(=O)C(Cc2ccccc2)N2C(=O)c3cc(Cl)c(Cl)cc3C2=O)c1 (centres unmarked) [CBK264232] | 109
CC(=O)Nc1ccc(S(=O)(=O)N2CCN(C(=O)COc3ccc(Br)cc3)CC2)cc1 [CBK264234] | 94.1
O=C(CCCOc1ccc(Cl)cc1Cl)Nc1c[nH]c(=O)[nH]c1=O [CBK264235] | 113
Cc1ccc(NC(=O)C(=O)NCCCn2ccnc2)cc1Cl [CBK264238] | 92.2
CCCS(=O)(=O)N1CCN(C(=O)c2cccnc2)CC1 [CBK264239] | 93.8
CC(CCc1ccccc1)N1CCN(S(=O)(=O)c2ccc3ccccc3c2)CC1 (centres unmarked) [CBK264240] | 104
O=C(CN1CCN(Cc2ccc3c(c2)OCO3)CC1)Nc1ccc(Cl)cc1C(=O)c1ccccc1 [CBK264241] | 103
Cc1ccc(S(=O)(=O)N2CCN(Cc3cc(Br)ccc3O)CC2)cc1 [CBK264242] | 98.5
O=C(CN1CCOCC1)Nc1ccc(NC(=O)CN2CCOCC2)c(Cl)c1 [CBK264243] | 112

SMILES | viability at 28.5 h, 10 µM [%]
COc1ccc(Nc2nnc(-c3ccc(C(N)=O)cc3)c3ccccc23)cc1 [CBK264246] | 92.7
CC1CCN(Cn2nc(COc3ccccc3)n(-c3ccccc3)c2=S)CC1 [CBK264247] | 97.3
CCn1c2ccccc2c2cc(CN3CCN(S(=O)(=O)c4ccc(NC(C)=O)cc4)CC3)ccc21 [CBK264248] | 94.1
Cc1ccc(-c2nc(Nc3ccc(Br)cc3)sc2CC(=O)O)cc1 [CBK264251] | 101
COc1cc(C=O)ccc1OC(=O)c1cn(-c2ccccc2)nc1-c1cccnc1 [CBK264255] | 89.6
O=C(O)c1ccc(CNC(=O)c2ccc3c(c2)C(=O)N(CC2CCCO2)C3=O)cc1 (centres unmarked) [CBK264256] | 98.4
Cc1ccc(OCC(=O)N2CCN(S(=O)(=O)c3ccccc3[N+](=O)[O-])CC2)cc1 [CBK264260] | 98.5
O=C(CCN1CCN(CCO)CC1)Nc1ccc2c(c1)CCC2 [CBK264262C] | 93.2
COc1ccc(C(NC(=O)C2CC=CCC2C(=O)O)c2ccccc2)cc1 (centres unmarked) [CBK264264] | 91.6
CC(=O)Nc1ccc(S(=O)(=O)N2CCN(C(=O)COc3ccc(C)cc3)CC2)cc1 [CBK264268] | 91
O=C(COc1ccc2ccccc2c1)N1CCN(S(=O)(=O)c2ccccc2[N+](=O)[O-])CC1 [CBK264271] | 91.8
COc1ccccc1N1C(=O)c2ccc(C(=O)Nc3cc([N+](=O)[O-])ccc3O)cc2C1=O [CBK264272] | 95.3
CN(C)CCOC(=O)c1ccc(S(=O)(=O)N(C)C)o1 [CBK264273C] | 100
COc1cc(CN2CCN(Cc3cccnc3)CC2)cc(OC)c1O [CBK264274G] | 102
CCOC(=O)C1CCCN(CCC(=O)Nc2cccc(F)c2)C1 (centres unmarked) [CBK264275C] | 107
O=C(COc1ccc2ccccc2c1)N1CCN(S(=O)(=O)c2ccc([N+](=O)[O-])cc2)CC1 [CBK264277] | 98
CC(=O)Nc1ccc(S(=O)(=O)N2CCN(C(=O)c3cccnc3)CC2)cc1 [CBK264279] | 96.5
O=C(CCN1CCc2ccccc2C1)Nc1cccc(F)c1 [CBK264282] | 103
O=[N+]([O-])c1ccccc1S(=O)(=O)N1CCN(Cc2cccc(Oc3ccccc3)c2)CC1 [CBK264283] | 98.9
CCOC(=O)C1CCCN(CCC(=O)Nc2cc(C)cc(C)c2)C1 (centres unmarked) [CBK264284] | 100
Cc1ccc(-c2nc(Nc3ccc(F)cc3)sc2CC(=O)O)cc1 [CBK264286] | 89.4
CCCS(=O)(=O)N1CCN(S(=O)(=O)c2ccc(NC(C)=O)cc2)CC1 [CBK264288] | 96.6
CCS(=O)(=O)N1CCN(S(=O)(=O)c2ccccc2[N+](=O)[O-])CC1 [CBK264289] | 99
Cc1oc(CSCc2cc(C(=O)O)c(C)o2)cc1C(=O)O [CBK264291] | 90.7
CC(=O)Nc1ccc(S(=O)(=O)N2CCN(c3ccc(C(F)(F)F)cc3[N+](=O)[O-])CC2)cc1 [CBK264293] | 93.9
O=C(COc1ccc(-c2ccccc2)cc1)N1CCN(S(=O)(=O)c2ccc([N+](=O)[O-])cc2)CC1 [CBK264297] | 106
COc1ccc(-c2nn(CN3CCC(C(N)=O)CC3)c(=S)n2-c2ccccc2)cc1OC [CBK264299] | 91.8

SMILES | viability at 28.5 h, 10 µM [%]
CSc1ccc(CN2CCN(S(=O)(=O)Cc3ccccc3)CC2)cc1 [CBK264301G] | 94.2
COc1ccc(OC)c(CN2CCN(CCCc3ccccc3)CC2)c1 [CBK264304] | 100
O=[N+]([O-])c1ccccc1CN1CCN(Cc2cccc(Oc3ccccc3)c2)CC1 [CBK264307] | 91.3
O=C(Nc1ccc2nsnc2c1NC(=O)c1ccc2nsnc2c1)c1ccc2nsnc2c1 [CBK264309] | 95.9
O=[N+]([O-])c1ccc(CN2CCN(C3CCN(Cc4ccccc4)CC3)CC2)cc1 [CBK264310G] | 98.5
O=[N+]([O-])c1ccccc1S(=O)(=O)N1CCN(S(=O)(=O)c2ccc(Cl)cc2)CC1 [CBK264311] | 98.6
COc1ccccc1N1CCN(CCC(=O)Nc2ccccc2F)CC1 [CBK264313] | 106
O=C(CCN1CCN(CCO)CC1)Nc1ccc(F)c(F)c1 [CBK264316] | 100
Cc1cc(/C=C2/C(=N)N3N=C(Cc4ccccc4)SC3=NC2=O)c(C)n1-c1ccccc1 [CBK264318] | 100
CCCCC1=NN2C(=N)/C(=C/c3cn(Cc4ccc([N+](=O)[O-])cc4)c4ccccc34)C(=O)N=C2S1 [CBK264320] | 106
O=C(NCCN1CCOCC1)C1CCN(Cc2ccccc2O)CC1 [CBK264324] | 101
CN1CCN(C(=O)C2CCN(CCCc3ccccc3)CC2)CC1 [CBK264326G] | 96
Cc1cccc(N2CCN(C(=O)C3CCN(Cc4cccc(OCc5ccccc5)c4)CC3)CC2)c1C [CBK264328G] | 94.3
Cc1ccc(S(=O)(=O)N(C)CC(=O)OCC(=O)c2ccccc2)cc1 [CBK264329] | 95.1
O=C(/C=C/c1ccc(Cl)cc1Cl)NC(=S)Nc1ccccc1F [CBK264332] | 108
Cc1cc(C)c2c(O)nc(SCC(=O)c3ccccc3)nc2n1 [CBK264336] | 100
O=c1/c(=C/c2ccncc2)sc2n1CN(c1cccc(F)c1)CN=2 [CBK264340] | 99.2
Cc1ccc(-c2cc(C(=O)O)c3cc4c(C(=O)O)cc(-c5ccc(C)o5)nc4cc3n2)o1 [CBK264342] | 87.4
Cc1c(NC(=S)NC(=O)Cc2ccccc2)cccc1-c1nc2ncccc2o1 [CBK264345] | 118
Cc1ccc(N2CCN(C3=NC(=O)/C(=C\c4ccc(O)c([N+](=O)[O-])c4)S3)CC2)cc1 [CBK264347] | 92.9
COc1ccc(CCNS(=O)(=O)N(C)C)cc1 [CBK264348] | 93
COc1ccc(C(=O)CSc2nnc(C)[nH]2)cc1[N+](=O)[O-] [CBK264350] | 95.5
CC(=O)Nc1ccc(N(CC(O)Cn2c3ccccc3c3ccccc32)S(C)(=O)=O)cc1 (centres unmarked) [CBK264352] | 96.7
CC1(C)Cc2c(sc(NC(=O)Cc3ccccc3)c2C(=O)O)CO1 [CBK264354] | 110
Cc1ccc(/C=C2\SC(=S)N(CCCC(=O)N3CCC(Cc4ccccc4)CC3)C2=O)cc1 [CBK264356] | 101
O=C(Cn1nnc(-c2ccccc2)n1)Nc1ccccc1C(=O)O [CBK264358] | 103

same assay, conditions: human, hela cells, % viability, bulk resorufin, single well

SMILES | viability at 28.5 h, 10 µM [%]
O=C1NC(=S)NC(=O)C1=Cc1ccc(OCc2ccccc2F)c(Br)c1 [CBK264257] | 97.7
COc1cc(/C=C2\C(=O)NC(=O)N(c3ccc(O)cc3)C2=O)cc(I)c1O [CBK264298] | 114
COc1ccc(N2C(=O)/C(=C/c3cc(C)n(-c4cccc(C(=O)O)c4C)c3C)C(=O)NC2=S)cc1 [CBK264315] | 96.6
